In EPA's ToxRefDB 2:

Experiments:
[1] = system: rat; settings: Sub-acute repeat dose toxicity, Oral, Gavage/Intubation, dose end: 7 day, group: systemic
[2] = system: rat; settings: Sub-acute repeat dose toxicity, Oral, Gavage/Intubation, dose end: 7 day, group: systemic; remark: listed apart in the source
[3] = system: primate; settings: Sub-acute repeat dose toxicity; Oral; Gavage/Intubation; dose end: 5 day; group: systemic; systemic / in life observation / food consumption / food consumption + systemic / in life observation / clinical signs / emesis + systemic…
[4] = system: primate; settings: Sub-acute repeat dose toxicity; Oral; Gavage/Intubation; dose end: 5 day; group: systemic; systemic / clinical chemistry / aspartate aminotransferase (ast/sgot) / aspartate aminotransferase (ast/sgot) + systemic / clinical …
[5] = system: rat; settings: Sub-acute repeat dose toxicity, Oral, Gavage/Intubation, dose end: 28 day, group: systemic
[6] = system: rat; settings: Sub-acute repeat dose toxicity; Oral; Gavage/Intubation; dose end: 4 day; group: systemic; systemic / in life observation / clinical signs / impaired reflex, nos
[7] = system: rat; settings: Fertility (Segment I), sprague dawley, Oral, Gavage/Intubation, dose end: 7 GD
[8] = system: primate; settings: Sub-acute repeat dose toxicity, macaque, Oral, Gavage/Intubation, dose end: 1 month, group: systemic
[9] = system: rat; settings: Prenatal developmental toxicity study; sprague dawley; Oral; Gavage/Intubation; dose end: 17 GD; group: maternal; systemic / in life observation / body weight / body weight + systemic / in life observation / body weight / body weight gain + systemic / in…
[10] = system: primate; settings: Chronic toxicity, macaque, Oral, Gavage/Intubation, dose end: 6 month, group: systemic
[11] = system: rat; settings: Sub-acute repeat dose toxicity; sprague dawley; Oral; Gavage/Intubation; dose end: 28 day; group: systemic; systemic / in life observation / body weight / body weight gain + systemic / in life observation / food consumption / food consumption + …
[12] = system: rat; settings: Chronic toxicity, sprague dawley, Oral, Gavage/Intubation, dose end: 6 month, group: systemic
[13] = system: rat; settings: Prenatal developmental toxicity study; sprague dawley; Oral; Gavage/Intubation; dose end: 17 GD; group: maternal; systemic / in life observation / body weight / body weight gain + systemic / in life observation / clinical signs / fur (altered appearance…
[14] = system: dog; settings: Sub-acute repeat dose toxicity, beagle, Oral, Capsule, dose end: 1 month, group: systemic
[15] = system: rabbit; settings: Prenatal developmental toxicity study, new zealand white, Oral, Gavage/Intubation, dose end: 19 GD
[16] = systemic / hematology / blood clotting / blood clotting - prothrombin time + systemic / organ weight / heart / relative to body weight + …
[17] = systemic / hematology / blood clotting / blood clotting - prothrombin time + systemic / organ weight / liver / absolute + systemic / organ …
[18] = systemic / hematology / blood clotting / blood clotting - prothrombin time + systemic / hematology / lymphocyte / lymphocyte + systemic / in…
[19] = systemic / hematology / blood clotting / blood clotting - activated partial thromboplastin time + systemic / hematology / blood clotting / …
[20] = systemic / hematology / mean corpuscular hemoglobin (mch) / mean corpuscular hemoglobin (mch) + systemic / hematology / mean corpuscular …
[21] = group: maternal, reproductive / reproductive performance / estrous cycle / abnormal
[22] = group: parental, systemic / in life observation / body weight / body weight gain + systemic / in life observation / clinical signs / piloerection + systemic…
[23] = group: parental, systemic / in life observation / body weight / body weight gain + systemic / in life observation / food consumption / food consumption + …
[24] = systemic / in life observation / clinical signs / [other] + systemic / in life observation / clinical signs / defecation (diarrhea) + …
[25] = systemic / in life observation / food consumption / food consumption
[26] = systemic / clinical chemistry / alanine aminotransferase (alt/sgpt) / alanine aminotransferase (alt/sgpt)
[27] = systemic / clinical chemistry / alanine aminotransferase (alt/sgpt) / alanine aminotransferase (alt/sgpt) + systemic / pathology microscopic…
[28] = systemic / clinical chemistry / [other] / [other] + systemic / clinical chemistry / phosphorus / phosphate + systemic / clinical chemistry…
[29] = systemic / clinical chemistry / [other] / [other] + systemic / clinical chemistry / phosphorus / phosphate + systemic / in life observation…
[30] = systemic / clinical chemistry / alanine aminotransferase (alt/sgpt) / alanine aminotransferase (alt/sgpt) + systemic / clinical chemistry / …
[31] = group: developmental, developmental / developmental malformation / eye / open eye
[32] = group: maternal, systemic / in life observation / body weight / body weight gain + systemic / in life observation / food consumption / food consumption + …
[33] = group: maternal, systemic / pathology gross / pancreas / irregular surface + systemic / pathology gross / pancreas / reduced size

Molecule O=C(CO)N1CCC(c2[nH]nc(-c3ccc(Cl)cc3F)c2-c2ccncn2)CC1 has an LOAEL [1, 16] of over 2000 mg/kg/day, an NOAEL [1, 16] of at least 2000 mg/kg/day and an LEL [1, 17] of 200 mg/kg/day. For the same molecule, the NEL [1, 17] was under 200 mg/kg/day, the LOAEL [2, 18] was over 2000 mg/kg/day and the NOAEL [2, 18] was at least 2000 mg/kg/day. The LEL [2, 16] was 200 mg/kg/day, the NEL [2, 16] was under 200 mg/kg/day and the LEL [3] was 600 mg/kg/day. It also gave an LOAEL [3] of over 600 mg/kg/day, an NEL [3] of under 600 mg/kg/day and an NOAEL [3] of at least 600 mg/kg/day. It also gave an LEL [4] of 600 mg/kg/day, an LOAEL [4] of over 600 mg/kg/day and an NEL [4] of under 600 mg/kg/day. It also gave an NOAEL [4] of at least 600 mg/kg/day, an LOAEL [5, 19] of over 2000 mg/kg/day and an NOAEL [5, 19] of at least 2000 mg/kg/day. It also gave an LEL [5, 20] of 20 mg/kg/day, an NEL [5, 20] of under 20 mg/kg/day and an LEL [6] of 50 mg/kg/day. It also gave an LOAEL [6] of over 2000 mg/kg/day, an NEL [6] of under 50 mg/kg/day and an NOAEL [6] of at least 2000 mg/kg/day.

In the case of COc1cc(-c2nc(NC(=O)c3cc4cc(C)cc(C)c4n3CC(=O)O)sc2CCC2CCCCC2)c(OC)cc1Cl.O=C(O)C(F)(F)F, the LEL [7, 21] is reported as 200 mg/kg/day, the LOAEL [7, 21] is reported as over 1000 mg/kg/day and the NEL [7, 21] is reported as 50 mg/kg/day. For the same molecule, the NOAEL [7, 21] was at least 1000 mg/kg/day, the LOAEL [7, 22] was over 1000 mg/kg/day and the NOAEL [7, 22] was at least 1000 mg/kg/day. For the same molecule, the LEL [7, 23] was 50 mg/kg/day, the NEL [7, 23] was under 50 mg/kg/day and the LOAEL [8, 24] was 5 mg/kg/day. For the same molecule, the NOAEL [8, 24] was 1 mg/kg/day, the LEL [8, 25] was 1 mg/kg/day and the NEL [8, 25] was under 1 mg/kg/day. The LEL [9] was 250 mg/kg/day, the LOAEL [9] was over 500 mg/kg/day and the NEL [9] was under 250 mg/kg/day. For the same molecule, the NOAEL [9] was at least 500 mg/kg/day, the LEL [10, 26] was 0.6 mg/kg/day and the NEL [10, 26] was under 0.6 mg/kg/day. For the same molecule, the LOAEL [10, 27] was 3 mg/kg/day, the NOAEL [10, 27] was 0.6 mg/kg/day and the LEL [11] was 1 mg/kg/day. For the same molecule, the LOAEL [11] was over 30 mg/kg/day, the NEL [11] was under 1 mg/kg/day and the NOAEL [11] was at least 30 mg/kg/day. For the same molecule, the LOAEL [12, 28] was over 250 mg/kg/day, the NOAEL [12, 28] was at least 250 mg/kg/day and the LEL [12, 29] was 1 mg/kg/day. The NEL [12, 29] was under 1 mg/kg/day, the LEL [13] was 50 mg/kg/day and the LOAEL [13] was over 1000 mg/kg/day. It also gave an NEL [13] of under 50 mg/kg/day, an NOAEL [13] of at least 1000 mg/kg/day and an LOAEL [14, 30] of over 25 mg/kg/day. The NOAEL [14, 30] was at least 25 mg/kg/day, the LEL [14, 27] was 1 mg/kg/day and the NEL [14, 27] was under 1 mg/kg/day. The LEL [15, 31] was 10 mg/kg/day, the LOAEL [15, 31] was 10 mg/kg/day and the NEL [15, 31] was 3 mg/kg/day. For the same molecule, the NOAEL [15, 31] was 3 mg/kg/day, the LOAEL [15, 32] was over 10 mg/kg/day and the NOAEL [15, 32] was at least 10 mg/kg/day. The LEL [15, 33] was 0.5 mg/kg/day and the NEL [15, 33] was under 0.5 mg/kg/day.
